Measurements published in US20250171461A1, “STIMULATOR OF INTERFERON GENES (STING) MODULATORS, AND COMPOSITIONS AND METHODS THEREOF” (Geode Therapeutics Inc., priority 2022, published 2025).

Target: T1, human HAQ STING isoform (hSTING HAQ) (Homo sapiens, UniProt Q86WV6, G230A/H232R/R293Q/R71H)
T1 construct: THP1 cells express the naturally occurring human HAQ STING isoform (hSTING HAQ); host or cells: THP1
Assay: IFN-β mRNA level in THP1 cells (qPCR, STING agonist cellular activity)
Type: cell-based
Conditions: compound at 3.6 μM, 2 hrs, IFNβ expression normalized against GAPDH by the 2^-ΔΔCT method, DMSO = 1.0
In short: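 THP1 cells were seeded at 9×10^5 per well, incubated overnight, then treated with compound at 3.6 μM final (0.1% DMSO control) for 2 hrs at 37 °C. IFN-β mRNA was measured by SYBR Green qPCR, normalised to GAPDH by the 2^−ΔΔCT method, in triplicate.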

T1 sequence (Q86WV6 whole entry R71H/G230A/H232R/R293Q, canonical isoform): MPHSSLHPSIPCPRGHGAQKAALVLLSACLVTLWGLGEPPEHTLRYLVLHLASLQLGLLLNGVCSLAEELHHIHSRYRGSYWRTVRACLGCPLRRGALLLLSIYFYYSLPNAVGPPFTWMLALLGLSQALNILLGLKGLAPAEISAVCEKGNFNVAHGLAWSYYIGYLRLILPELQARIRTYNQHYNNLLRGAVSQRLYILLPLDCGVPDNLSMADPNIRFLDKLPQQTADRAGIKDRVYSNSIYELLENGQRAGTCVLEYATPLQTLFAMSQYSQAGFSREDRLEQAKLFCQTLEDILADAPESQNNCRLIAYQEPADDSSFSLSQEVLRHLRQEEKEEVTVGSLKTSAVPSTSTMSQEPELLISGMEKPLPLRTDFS

Q: Which “Relative mRNA INFβ/GAPDH THP 1” value does the source give for `COc1cc(CN(Cc2cn3c4c(c(N5CCCCC5=O)c(F)cc4c2=O)OCC3C)[C@H]2CCCN(c3ccc(N)nc3)C2)ccn1` (stereo partly drawn) [Compound 60, 6-((((S)-1-(6-aminopyridin-3-yl)piperidin-3-yl)((2-methoxypyridin-4-yl)methyl)amino)methyl)-9-fluoro-3-methyl-10-(2-oxopiperidin-1-yl)-2H-[1,4]oxazino[2,3,4-ij]quinolin-7(3H)-one] here?
A: Its value is 174.3.

Q: Which “Relative mRNA INFβ/GAPDH THP 1” value does the source give for `COc1cc(CN(Cc2cn3c4c(c(N5CCCCC5=O)c(F)cc4c2=O)OCC3C)[C@H]2CCCN(c3ccc(N)nc3)C2)ccn1` (stereo partly drawn) [Compound 61, 6-((((S)-1-(6-aminopyridin-3-yl)piperidin-3-yl)((2-methoxypyridin-4-yl)methyl)amino)methyl)-9-fluoro-3-methyl-10-(2-oxopiperidin-1-yl)-2H-[1,4]oxazino[2,3,4-ij]quinolin-7(3H)-one] here?
A: Its value is 0.7.

Q: `COc1cc(CN(Cc2cn3c4c(c(OCc5ccccc5)c(F)cc4c2=O)OCC3C)[C@H]2CCCN(c3ccc(N)nc3)C2)ccn1` (stereo partly drawn) [Compound 62, 6-((((S)-1-(6-aminopyridin-3-yl)piperidin-3-yl)((2-methoxypyridin-4-yl)methyl)amino)methyl)-10-(benzyloxy)-9-fluoro-3-methyl-2H-[1,4]oxazino[2,3,4-ij]quinolin-7(3H)-one] was tested. Which “Relative mRNA INFβ/GAPDH THP 1” value did it give?
A: The value was 915.2.

Q: For `COc1cc(CN(Cc2cn3c4c(c(O)c(F)cc4c2=O)OCC3C)[C@H]2CCCN(c3ccc(N)nc3)C2)ccn1` (stereo partly drawn) [Compound 63, 6-((((S)-1-(6-aminopyridin-3-yl)piperidin-3-yl)((2-methoxypyridin-4-yl)methyl)amino)methyl)-9-fluoro-10-hydroxy-3-methyl-2H-[1,4]oxazino[2,3,4-ij]quinolin-7(3H)-one], which “Relative mRNA INFβ/GAPDH THP 1” value is on record?
A: Its value is 2.5.

Q: For `COc1cc(CN(Cc2cn3c4c(c(-c5ccc(CCO)cn5)c(F)cc4c2=O)OCC3C)[C@H]2CCCN(c3ccc(N)nc3)C2)ccn1` (stereo partly drawn) [Compound 64, 6-((((S)-1-(6-aminopyridin-3-yl)piperidin-3-yl)((2-methoxypyridin-4-yl)methyl)amino)methyl)-9-fluoro-10-(5-(2-hydroxyethyl)pyridin-2-yl)-3-methyl-2H-[1,4]oxazino[2,3,4-ij]quinolin-7(3H)-one], which “Relative mRNA INFβ/GAPDH THP 1” value is on record?
A: The value was 26.6.

Q: With `COc1cc(CN(Cc2cn3c4c(c(F)c(F)cc4c2=O)OCC3)[C@H]2CCCN(c3ccc([N+](=O)[O-])nc3)C2)ccn1` [Compound 65, (S)-9,10-difluoro-6-((((2-methoxypyridin-4-yl)methyl)(1-(6-nitropyridin-3-yl)piperidin-3-yl)amino)methyl)-2,3-dihydro-7H-[1,4]oxazino[2,3,4-ij]quinolin-7-one] as the compound, how does the “Relative mRNA INFβ/GAPDH THP 1” value read?
A: The value was 7.4.

Q: `Nc1ccc(N2CCC[C@H](N(Cc3ccncc3)Cc3cn4c5c(c(F)c(F)cc5c3=O)OCC4)C2)cn1` [Compound 70, (S)-6-(((1-(6-aminopyridin-3-yl)piperidin-3-yl)(pyridin-4-ylmethyl)amino)methyl)-9,10-difluoro-2,3-dihydro-7H-[1,4]oxazino[2,3,4-ij]quinolin-7-one] was tested. Which “Relative mRNA INFβ/GAPDH THP 1” value did it give?
A: Its value is 6236.9.

Q: `Cc1cc(CN(Cc2cn3c4c(c(F)c(F)cc4c2=O)OCC3)[C@H]2CCCN(c3ccc(N)nc3)C2)ccn1` [Compound 71, (S)-6-(((1-(6-aminopyridin-3-yl)piperidin-3-yl)((2-methylpyridin-4-yl)methyl)amino)methyl)-9,10-difluoro-2,3-dihydro-7H-[1,4]oxazino[2,3,4-ij]quinolin-7-one] was tested. Which “Relative mRNA INFβ/GAPDH THP 1” value did it give?
A: The value was 6763.7.

Q: With `Nc1ccc(N2CCC[C@H](N(Cc3ccccc3)Cc3cn4c5c(c(F)c(F)cc5c3=O)OCC4)C2)cn1` [Compound 72, (S)-6-(((1-(6-aminopyridin-3-yl)piperidin-3-yl)(benzyl)amino)methyl)-9,10-difluoro-2,3-dihydro-7H-[1,4]oxazino[2,3,4-ij]quinolin-7-one] as the compound, how does the “Relative mRNA INFβ/GAPDH THP 1” value read?
A: Its value is 31.9.
